According to patent EP4729061A1, “USE OF AKT INHIBITOR IN PREPARATION OF DRUG FOR PREVENTING OR TREATING BREAST CANCER” (Nanjing Chia Tai Tianqing Pharmaceutical Co., Ltd., priority 2023, dated 2024):

What was measured:
Assay in all cases: Cell proliferation inhibition, CTG (CelltiterGlo) method, alone or combined with fulvestrant
Format in all cases: cell-based
[1] = tested on: BT-474 Cells; details: compound alone; for IC50: Homo sapiens, BT-474, 168 h, 7 days; for Maximum Inhibition Rate on BT-474 Cells: maximum value fitted by GraphPad Prism 8
Protocol: (§1) a). BT-474 cells were cultured in Hybri-Care medium supplemented with 1% antibiotics and 10% FBS, and incubated in the condition of 37°C with 5% CO2; b). MCF-7 cells were cultured in EMEM medium supplemented with 1% antibiotics, 0.01 mg/mL insulin, and 10% FBS, and incubated in the condition of 37°C with 5% CO2; c). ZR-75-1 cells were cultured in RPMI-1640 medium supplemented with 1% antibiotics and 10% FBS, and incubated in the condition of 37°C with 5% CO2; d). T47D cells were cultured in RPMI-1640 medium supplemented with 1% antibiotics, 0.2 U/mL insulin, and 10% FBS, and incubated in the condition of 37°C with 5% CO2; e) CAMA-1 cells were cultured in EMEM medium supplemented with 1% antibiotics and 10% FBS, and incubated in the condition of 37°C with 5% CO2.
(§2) a). Cells were routinely cultured until reaching 80%-90% confluence and when the required cell number was reached, they were harvested; b). Resuspended in the corresponding medium, counted, and prepared into a cell suspension with appropriate density; c). The cell suspension was added to a 384-well plate at 40 µL per well. Table 1. Plating densities of different cell lines
(§3) d). The cells were cultured overnight in an incubator at 37°C with 5% CO2 .
(§4) a). The compound of Formula (A) was serially diluted 3-fold for 10 concentrations starting from a stock solution of 60 mM (using the monofumarate dihydrate of the compound of Formula (A), with the concentration calculated based on the free base of the compound of Formula (A); the compound of Formula (A) or salt thereof was prepared with reference to the preparation method disclosed in WO2022017448A1); b). Fulvestrant was diluted from 10 mM to 2 mM with DMSO, then serially diluted 3-fold for 10 concentrations; c). Fulvestrant was diluted from 2 mM to 0.2 mM with DMSO, then serially diluted 3-fold for 10 concentrations; d). Fulvestrant was diluted from 0.2 mM to 2 µM with DMSO; e). Fulvestrant was diluted from 2 µM to 0.8 µM with DMSO; f). Fulvestrant was diluted from 2 µM to 0.3 µM with DMSO; g) Fulvestrant was diluted from 0.8 µM to 0.08 µM with DMSO; h). The final concentration of DMSO was 0.1%; i). Cells supplemented with DMSO served as control wells for high reading values; j). Cell-free medium served as control wells for low reading values.
(§5) 24 Hours after BT474 and ZR-75-1 cells were plated, the compound was administered alone. For the compound of Formula (A): 20 nL of the compound prepared in step 2.3 a) + 20 nL of DMSO were added. For the compound fulvestrant: 20 nL of the compound prepared in step 2.3 b) + 20 nL of DMSO were added.
(§6) 24 Hours after BT474 and ZR-75-1 cells were plated, the compound of Formula (A) was administered in combination with fulvestrant: 20 nL of the compound prepared in step 2.3 a) + 20 nL of the compounds prepared in step 2.3 b) and d).
(§7) Fulvestrant for point-to-point combination (nM): 1000, 333, 111, 37, 12.3, 4.1, 1.37, 0.46, 0.15, 0.05, which are respectively combined with the gradient concentrations of the compound of Formula (A); Fulvestrant for single-concentration combination (nM): 1000, 1, which are respectively combined with the gradient concentrations of the compound of Formula (A).
(§8) The compound of Formula (A) (nM): 30000, 10000, 3333, 1111, 370, 123, 41.2, 13.7, 4.57, 1.52; • Fulvestrant for point-to-point combination (nM): 100, 33.3, 11.1, 3.7, 1.23, 0.41, 0.14, 0.046, 0.015, 0.005, which are respectively combined with the gradient concentrations of the compound of Formula (A); • Fulvestrant for single-concentration combination (nM): 1.2, 0.14, which are respectively combined with the gradient concentrations of the compound of Formula (A). d). The cell culture plates were centrifuged at 1000 rpm for 1 min, then placed in an incubator at 37°C with 5% CO2 for 7 days.
(§9) a). 40 µL of CTG reagent (CelltiterGlo kit) was added to each well, placed on a rapid shaker for 2 minutes of oscillation, centrifuged at 1000 rpm for 1 min, and then left at room temperature in the dark for 30 minutes; b). […]

[2] = tested on: ZR-75-1 Cells; details: compound alone; for IC50: Homo sapiens, ZR-75-1, 168 h, 7 days; for Maximum Inhibition Rate on ZR-75-1 Cells: maximum value fitted by GraphPad Prism 8
Protocol: as §1, §2, §3, §4, §5, §6, §7, §8, §9

[3] = tested on: T47D Cells; details: compound alone; for IC50: Homo sapiens, T47D, 168 h, 7 days; for Maximum Inhibition Rate on T47D Cells: maximum value fitted by GraphPad Prism 8
Protocol: as §1, §2, §3, §4
24 Hours after MCF-7, T47D, and CAMA-1 cells were plated, the compound was administered alone. For the compound of Formula (A): 20 nL of the compound prepared in step 2.3 a) + 20 nL of DMSO were added. For compound fulvestrant: 20 nL of the compound prepared in step 2.3 c) + 20 nL of DMSO were added.
24 Hours after T47D cells were plated, the compound of Formula (A) was administered in combination with fulvestrant: 20 nL of the compound prepared in step 2.3 a) + 20 nL of the compounds prepared in step 2.3 c), e), and g). […]

[4] = tested on: CAMA-1 Cells; details: compound alone; for IC50: Homo sapiens, CAMA-1, 168 h, 7 days
Protocol: as §1, §2, §3
a). The compound of Formula (A) was serially diluted 3-fold for 10 concentrations starting from a stock solution of 60 mM (using the monofumarate dihydrate of the compound of Formula (A), with the concentration calculated based on the free base of the compound of Formula (A); the compound of Formula (A) or salt thereof was prepared with reference to the preparation method disclosed in WO2022017448A1); b). […] Cells supplemented with DMSO served as control wells for high reading values; j). Cell-free medium served as control wells for low reading values. […]
a). […] The chemiluminescent signal values were read using an Envision instrument.
Using the inhibition rate data measured by monotherapy or single-concentration combination therapy in Section 2.4, IC50 was calculated with GraphPad Prism 8 software. […]

| Structure (SMILES) | IC50 [1] | Maximum Inhibition Rate on BT-474 Cells [1] | IC50 [2] | Maximum Inhibition Rate on ZR-75-1 Cells [2] | IC50 [3] | Maximum Inhibition Rate on T47D Cells [3] | IC50 [4] | Maximum Inhibition Rate on CAMA-1 Cells ([4]; maximum value fitted by GraphPad Prism 8) |
| --- | --- | --- | --- | --- | --- | --- | --- | --- |
| C[C@]12CC[C@@H]3c4ccc(O)cc4C[C@@H](CCCCCCCCC[S+]([O-])CCCC(F)(F)C(F)(F)F)[C@H]3[C@@H]1CC[C@@H]2O (stereo partly drawn) [Fulvestrant, reference compound] | > 1000 nM | 43.33% | > 1000 nM | 43.96% | 0.09 nM | 62.71% | > 100 nM | – |
| CC(C)NC[C@@H](C(=O)N1CCN(c2ncnc3c2[C@H](C)CC(=O)N3)[C@H]2C[C@H]21)c1ccc(Cl)cc1 [The compound of Formula (A), (R)-4-((1S,6R)-5-((S)-2-(4-chlorophenyl)-3-(isopropylamino)propanoyl)-2,5-diazabicyclo[4.1.0]heptan-2-yl)-5-methyl-5,8-dihydropyrido[2,3-d]pyrimidin-7(6H)-one] | 668 nM | 84.62% | 2170 nM | 92.45% | 358 nM | 91.47% | 1130 nM | 95.43% |
